Laboratory results published in the supplement of paper PMC10883282.

Legend:
Assay in all cases: relative viability vs DMSO control (72 h) (fraction); higher = more viable cells
SW872 = system: SW872
Summary of the method: (§1)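 Serially diluted compound, 2.5 µl from source plates spanning 10 mM to 0.0002 mM, was added 24 h after sarcoma cell lines were seeded in 384-well plates at densities targeting 80–90% confluence. Plates then sat 72 h at 37 °C, 5% CO2, with 0.1% DMSO vehicle and a 5 µM positive control. Relative viability came from ATPLite as percent growth, averaged over up to triplicate wells, and was rescaled with 1 as full and 0 as none.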

SW684 = system: SW684
Summary of the method: as §1

RD-ES = system: RD-ES
Summary of the method: as §1

HS729 = system: HS729
Summary of the method: as §1

VA-ES-BJ = system: VA-ES-BJ
Summary of the method: as §1

KHOS-NP = system: KHOS-NP
Summary of the method: as §1

G401 = system: G401
Summary of the method: as §1

SK-ES-1 = system: SK-ES-1
Summary of the method: as §1

HT1080 = system: HT1080
Summary of the method: as §1

A204 = system: A204
Summary of the method: as §1

SW982 = system: SW982
Summary of the method: as §1

SK-LMS-1 = system: SK-LMS-1
Summary of the method: as §1

O=C1NC(=O)[C@@H](c2cn3c4c(cccc24)CCC3)[C@@H]1c1c[nH]c2ccccc12 [Tivantinib]
Settings | relative viability
A204, 0.00017 µM | 1.08
A204, 0.00051 µM | 1.05
A204, 0.00152 µM | 1.09
A204, 0.00457 µM | 1.11
A204, 0.01372 µM | 1.1
A204, 0.04115 µM | 1.07
A204, 0.1235 µM | 1.06
A204, 0.3704 µM | 1.05
A204, 1.111 µM | 0.455
A204, 3.333 µM | 0.439
A204, 10 µM | 0.331
G401, 0.00017 µM | 1
G401, 0.00051 µM | 1.01
G401, 0.00152 µM | 1.03
G401, 0.00457 µM | 1.03
G401, 0.01372 µM | 1.02
G401, 0.04115 µM | 0.982
G401, 0.1235 µM | 1.05
G401, 0.3704 µM | 0.941
G401, 1.111 µM | 0.573
G401, 3.333 µM | 0.534
G401, 10 µM | 0.367
HS729, 0.00017 µM | 0.901
HS729, 0.00051 µM | 0.924
HS729, 0.00152 µM | 0.917
HS729, 0.00457 µM | 0.899
HS729, 0.01372 µM | 0.916
HS729, 0.04115 µM | 0.865
HS729, 0.1235 µM | 0.864
HS729, 0.3704 µM | 0.862
HS729, 1.111 µM | 0.599
HS729, 3.333 µM | 0.621
HS729, 10 µM | 0.564
HT1080, 0.00017 µM | 1.047
HT1080, 0.00051 µM | 1.02
HT1080, 0.00152 µM | 1.03
HT1080, 0.00457 µM | 1.04
HT1080, 0.01372 µM | 1.01
HT1080, 0.04115 µM | 1.04
HT1080, 0.1235 µM | 1.03
HT1080, 0.3704 µM | 1.02
HT1080, 1.111 µM | 0.287
HT1080, 3.333 µM | 0.128
HT1080, 10 µM | 0.0702
KHOS-NP, 0.00017 µM | 1.036
KHOS-NP, 0.00051 µM | 1.04
KHOS-NP, 0.00152 µM | 1.036
KHOS-NP, 0.00457 µM | 1.03
KHOS-NP, 0.01372 µM | 1.04
KHOS-NP, 0.04115 µM | 1.04
KHOS-NP, 0.1235 µM | 1.04
KHOS-NP, 0.3704 µM | 1.05
KHOS-NP, 1.111 µM | 0.541
KHOS-NP, 3.333 µM | 0.487
KHOS-NP, 10 µM | 0.374
RD-ES, 0.00017 µM | 0.948
RD-ES, 0.00051 µM | 0.967
RD-ES, 0.00152 µM | 0.986
RD-ES, 0.00457 µM | 1
RD-ES, 0.01372 µM | 1
RD-ES, 0.04115 µM | 1.01
RD-ES, 0.1235 µM | 0.977
RD-ES, 0.3704 µM | 0.94
RD-ES, 1.111 µM | 0.129
RD-ES, 3.333 µM | 0.071
RD-ES, 10 µM | 0.0364
SK-ES-1, 0.00017 µM | 1.01
SK-ES-1, 0.00051 µM | 1.04
SK-ES-1, 0.00152 µM | 1
SK-ES-1, 0.00457 µM | 1.08
SK-ES-1, 0.01372 µM | 1.03
SK-ES-1, 0.04115 µM | 1.02
SK-ES-1, 0.1235 µM | 0.9862
SK-ES-1, 0.3704 µM | 0.645
SK-ES-1, 1.111 µM | 0.0656
SK-ES-1, 3.333 µM | 0.0193
SK-ES-1, 10 µM | 0.0196
SK-LMS-1, 0.00017 µM | 1
SK-LMS-1, 0.00051 µM | 1.01
SK-LMS-1, 0.00152 µM | 0.972
SK-LMS-1, 0.00457 µM | 1.002
SK-LMS-1, 0.01372 µM | 1
SK-LMS-1, 0.04115 µM | 0.965
SK-LMS-1, 0.1235 µM | 0.887
SK-LMS-1, 0.3704 µM | 0.5799
SK-LMS-1, 1.111 µM | 0.497
SK-LMS-1, 3.333 µM | 0.385
SK-LMS-1, 10 µM | 0.301
SW684, 0.00017 µM | 1.15
SW684, 0.00051 µM | 1.119
SW684, 0.00152 µM | 1.16
SW684, 0.00457 µM | 1.123
SW684, 0.01372 µM | 1.09
SW684, 0.04115 µM | 1.13
SW684, 0.1235 µM | 1.1
SW684, 0.3704 µM | 0.961
SW684, 1.111 µM | 0.783
SW684, 3.333 µM | 0.601
SW684, 10 µM | 0.636
SW872, 0.00017 µM | 0.993
SW872, 0.00051 µM | 0.973
SW872, 0.00152 µM | 1
SW872, 0.00457 µM | 0.996
SW872, 0.01372 µM | 0.979
SW872, 0.04115 µM | 1.008
SW872, 0.1235 µM | 0.967
SW872, 0.3704 µM | 0.933
SW872, 1.111 µM | 0.473
SW872, 3.333 µM | 0.485
SW872, 10 µM | 0.467
SW982, 0.00017 µM | 1.05
SW982, 0.00051 µM | 1.04
SW982, 0.00152 µM | 1.04
SW982, 0.00457 µM | 1.07
SW982, 0.01372 µM | 1.06
SW982, 0.04115 µM | 1.04
SW982, 0.1235 µM | 1.03
SW982, 0.3704 µM | 0.766
SW982, 1.111 µM | 0.378
SW982, 3.333 µM | 0.272
SW982, 10 µM | 0.2611
VA-ES-BJ, 0.00017 µM | 1.01
VA-ES-BJ, 0.00051 µM | 1.03
VA-ES-BJ, 0.00152 µM | 1.02
VA-ES-BJ, 0.00457 µM | 1.03
VA-ES-BJ, 0.01372 µM | 1.01
VA-ES-BJ, 0.04115 µM | 1.01
VA-ES-BJ, 0.1235 µM | 0.991
VA-ES-BJ, 0.3704 µM | 0.76
VA-ES-BJ, 1.111 µM | 0.464
VA-ES-BJ, 3.333 µM | 0.439
VA-ES-BJ, 10 µM | 0.397
